The values that follow come from US20190365785A1, “INHIBITION OF UNFOLDED PROTEIN RESPONSE FOR SUPPRESSING OR PREVENTING ALLERGIC REACTION TO FOOD” (Children's Hospital Medical Center, priority 2017, published 2019).

One assay relates to BALB/c mice. Kind of assay: UPR inhibitors in drinking water or oral in mouse model of food (egg) allergy. It is filed as in vivo. To be noted: for intestinal UPR-related gene expression (except for BiP and ATF6) / intestinal pro-Th2 cytokine expression: 500 mg/kg/day in drinking water, FIG. 15A-15E; for hypothermia / mouse mast cell protease 1 (MMCP1) response / small intestinal UPR-related gene expression (except ATF6) / small intestinal pro-Th2 cytokine gene expression: mice induced to develop food allergy, 500 mg/kg in drinking water, FIG. 14. The protocol: BALB/c mice were induced to develop food allergy and were then treated with 500 mg/kg doses of metformin or TUDCA in drinking water.
BALB/c mice with established egg allergy were provided with drinking water that contained 500 mg/kg/day of metformin or TUDCA, or with ordinary drinking water. Both metformin and TUDCA suppressed intestinal UPR-related gene expression (except for BiP and ATF6) and pro-Th2 cytokine expression. Note the large increases in intestinal UPR-associated and pro-Th2 gene expression compared to naïve mice, and the partial suppression of UPR-associated and pro-Th2 genes by metformin and TUDCA (FIG. 15E).
BALB/c mice with established egg allergy were administered egg yolk plasma with or without 1 g/kg/day or 2 g/kg/day of metformin. Pro-Th2 cytokine and UPR-related gene expression was inhibited in skin (FIG. 16A) and lung (FIG. 16B).

In assay [1] the test system is CACO-2 cells. Kind of assay: Pro-Th2 cytokine expression by CACO-2 cells cultured with EYP, HC, MCT or sodium palmitate, with or without UPR inhibitors. It is filed as cell-based, human. How it is done:
To evaluate whether the UPR induces pro-Th2 gene expression in cultured human intestinal epithelial cells, we evaluated the abilities of three UPR inhibitors to inhibit the ability of egg yolk plasma (EYP), heavy cream (HC), medium chain triglycerides (MCT), or sodium palmitate to induce pro-Th2 cytokine expression by CACO-2 cells. CACO-2 cells were cultured for 24 hours with medium alone, EW, negative control, EYP, HC, MCT, or sodium palmitate (positive control for UPR induction), with or without the UPR inhibitors metformin, TUDCA, or 4-PBA. mRNA was prepared, reverse-transcribed, and quantitated by real time PCR. […] CACO-2 cells were obtained from the American Type Culture Collection (ATCC), catalog number HTB-37. These cells were grown in ATCC-formulated Eagle's Minimum Essential Medium (EMEM) (Cat. No. 30-2003), supplemented with fetal bovine serum (FBS) to a final concentration of 20% (ATCC® Cat. No. 30-2020) and Gibco antibiotic-antimycotic mixture. The cells were cultured in 6-well, 12-well, or 24-well culture plates to approximately 85%-90% confluency. On the day of experiment, EMEM medium was prepared with the appropriate concentrations of stimulants and/or inhibitors and added to the cells. Following the period of culture (usually 6 or 24 hours), the cells were washed and lysed, and total RNA was purified using PureLink™ RNA Mini Kit (Thermo Fisher Cat. No. 12183018A). The purified total RNA was used to generate cDNA using a High-Capacity cDNA Reverse Transcription Kit (Applied Biosystems, Cat. No. 4368814). Gene expression was analyzed using the qPCR method with a BioRad My iQ™ Detection system, and compared to the expression of the GAPDH housekeeping gene.

Assay [2] deals with CACO-2 cells. Kind of assay: CACO-2 cells cultured with egg yolk plasma or peanut extract, with or without lipase inhibitor Orlistat. In kind it is cell-based, human. To be noted: 24 hours, FIG. 3.
Method: CACO-2 cells were cultured for 24 hours with medium alone, egg yolk plasma, or peanut extract, with or without the lipase inhibitor Orlistat. mRNA was extracted and reverse transcribed, after which UPR-associated gene expression and pro-Th2 cytokine gene expression were determined by real time PCR. […] CACO-2 cells were obtained from the American Type Culture Collection (ATCC), catalog number HTB-37. These cells were grown in ATCC-formulated Eagle's Minimum Essential Medium (EMEM) (Cat. No. 30-2003), supplemented with fetal bovine serum (FBS) to a final concentration of 20% (ATCC® Cat. No. 30-2020) and Gibco antibiotic-antimycotic mixture. The cells were cultured in 6-well, 12-well, or 24-well culture plates to approximately 85%-90% confluency. On the day of experiment, EMEM medium was prepared with the appropriate concentrations of stimulants and/or inhibitors and added to the cells. Following the period of culture (usually 6 or 24 hours), the cells were washed and lysed, and total RNA was purified using PureLink™ RNA Mini Kit (Thermo Fisher Cat. No. 12183018A). The purified total RNA was used to generate cDNA using a High-Capacity cDNA Reverse Transcription Kit (Applied Biosystems, Cat. No. 4368814). Gene expression was analyzed using the qPCR method with a BioRad My iQ™ Detection system, and compared to the expression of the GAPDH housekeeping gene.
For assay [3], the system named is human intestinal organoids (HIO). The assay is described as follows: UPR-associated and pro-Th2 cytokine gene expression in human intestinal organoids injected with palmitate ± metformin or TUDCA. Conditions: lumen injection, FIG. 6A-6B. In kind it is cell-based. The protocol:
HIO were produced from human peripheral blood pluripotent stem cells having a single UPR-associated gene deleted by CRISPR/Cas9. Applicant injected the lumens of HIO with culture medium or palmitate to induce increased UPR-associated and pro-Th2 cytokine gene expression, and further injected the HIO lumens with metformin or TUDCA. mRNA levels for the UPR-associated and pro-Th2 cytokine genes were determined by real-time PCR.

For assay [4], the system named is CACO-2 cells. Kind of assay: UPR-related and pro-Th2 cytokine gene expression in CACO-2 cells cultured with lipid-free peanut extract ± metformin. In kind it is cell-based, human. To be noted: CACO-2 cells with peanut extract, treated with metformin. How it is done:
Because the UPR can be induced by multiple mechanisms that are associated with cell stress, including mechanisms that are not associated with lipids, Applicant investigated the ability of aqueous extracts of allergenic foods other than eggs and milk to induce UPR-associated and pro-Th2 cytokine gene expression, and the ability of metformin to suppress these responses. CACO-2 cells were cultured for 24 hours with medium alone or with a lipid-free peanut extract±metformin. mRNA was reverse-transcribed and gene expression was determined by real time PCR.
CACO-2 cells were obtained from the American Type Culture Collection (ATCC), catalog number HTB-37. These cells were grown in ATCC-formulated Eagle's Minimum Essential Medium (EMEM) (Cat. No. 30-2003), supplemented with fetal bovine serum (FBS) to a final concentration of 20% (ATCC® Cat. No. 30-2020) and Gibco antibiotic-antimycotic mixture. The cells were cultured in 6-well, 12-well, or 24-well culture plates to approximately 85%-90% confluency.
On the day of experiment, EMEM medium was prepared with the appropriate concentrations of stimulants and/or inhibitors and added to the cells. […] Gene expression was analyzed using the qPCR method with a BioRad My iQ™ Detection system, and compared to the expression of the GAPDH housekeeping gene.

Assay [5] has as its system CACO-2 cells. The assay is described as follows: Pro-Th2 cytokine protein production by CACO-2 cells (immunoprecipitation and Western blot). To be noted: 24 hr, Western blot, FIG. 4. In kind it is cell-based, human. How it is done:
CACO-2 cells were cultured for 24 hr±palmitate or EYP. Cell lysates were prepared and normalized by protein concentration and direct α/β-tubulin Western blot. Lysates were serially incubated with anti-IL-25+protein G beads, anti-IL-33+protein G beads, and anti-TSLP+protein G beads. Laemmli buffer eluates from beads were analyzed by electrophoresis on a 4-20% polyacrylamide gel, blotted onto a PVDF membrane, and visualized by incubation with biotinylated anti-IL-25, anti-IL-33, or anti-TSLP mAb, followed by streptavidin-peroxidase and ECL WB substrate.
On the technique in general: A western blot detects proteins with antibodies after separation by electrophoresis.

Where [6] appears, read: summary statement of Applicant's results.
Where [7] appears, read: 24 hours, real time PCR, FIG. 1.

As for `O=C(O)CCCc1ccccc1` [4-PBA, 4-phenylbutyrate], the established food allergy entry in the assay on BALB/c mice (setting [6]) is reported as “suppresses”. In addition, in the assay with CACO-2 cells [1] (setting [7]), the “suppression of EYP-, HC-, MCT- and palmitate-induced expression of the pro-Th2 cytokines” value (shortened to “suppression … of the pro-Th2 cytokines”) is reported as “strong suppression”.
Consider `CCCCCCCCCCC[C@@H](C[C@@H]1OC(=O)[C@H]1CCCCCC)OC(=O)[C@H](CC(C)C)NC=O` [Orlistat], for which, in the assay on CACO-2 cells [2], the “UPR-related or pro-Th2 gene expression by peanut extract” value was “no effect”; the “egg yolk plasma-induced UPR-associated and pro-Th2 cytokine gene expression” value is on record as “suppressed”.
Regarding `C[C@H](CCC(=O)NCCS(=O)(=O)O)[C@H]1CC[C@H]2[C@@H]3[C@@H](O)C[C@@H]4C[C@H](O)CC[C@]4(C)[C@H]3CC[C@]12C` [TUDCA, tauroursodeoxycholic acid], in the assay with BALB/c mice (established egg allergy), the “intestinal UPR-related gene expression (except for BiP and ATF6)” value is on record as “suppressed”; the “intestinal pro-Th2 cytokine expression” value is “suppressed”. In addition, in the assay with BALB/c mice, the hypothermia entry is “suppression”, the “mouse mast cell protease 1 (MMCP1) response” value was “suppression”, the “small intestinal UPR-related gene expression (except ATF6)” value was “suppression” and the “small intestinal pro-Th2 cytokine gene expression” value is given as “suppression”. Further, the established food allergy entry with BALB/c mice (setting [6]) is on record as “suppresses”. Besides, in the assay with CACO-2 cells [1] (setting [7]), the “suppression … of the pro-Th2 cytokines” value is “strong suppression”. Also, the “palmitate-induced UPR-associated and pro-Th2 cytokine gene expression” value in assay [3] is given as “suppressed”.
Consider `CN(C)C(=N)N=C(N)N` [metformin], for which, in the assay on BALB/c mice (established egg allergy), the “intestinal UPR-related gene expression (except for BiP and ATF6)” value is recorded as “suppressed”; the “intestinal pro-Th2 cytokine expression” value was “suppressed”. Besides, the “Pro-Th2 cytokine and UPR-related gene expression in skin” value in the assay with BALB/c mice (established egg allergy, egg yolk plasma, 1 g/kg/day or 2 g/kg/day oral, FIG. 16A) is recorded as “inhibited”. Besides, the “Pro-Th2 cytokine and UPR-related gene expression in lung” value in the assay on BALB/c mice (established egg allergy, egg yolk plasma, 1 g/kg/day or 2 g/kg/day oral, FIG. 16B) was “inhibited”. Besides, in the assay with BALB/c mice, the hypothermia result is “suppression”, the “mouse mast cell protease 1 (MMCP1) response” value was “suppression”, the “small intestinal UPR-related gene expression (except ATF6)” value is reported as “suppression” and the “small intestinal pro-Th2 cytokine gene expression” value is listed as “suppression”. Also, in the assay with BALB/c mice (setting [6]), the “development of food allergy” value was “suppresses” and the established food allergy result was “suppresses”. Further, the “expression of UPR-related genes” value with CACO-2 cells [4] (FIG. 2 A) is reported as “reduced expression”. Further, the “expression of pro-Th2 cytokine genes” value in the assay on CACO-2 cells [4] (FIG. 2 B) is reported as “reduced expression”. Moreover, the “suppression … of the pro-Th2 cytokines” value in the assay with CACO-2 cells [1] (setting [7]) is “strong suppression”. Further, the “pro-Th2 cytokine gene induction by egg and milk lipid fractions and aqueous extracts of peanuts, walnut, codfish” value with CACO-2 cells [1] (summary, every allergen tested) is “suppresses pro-Th2 cytokine gene induction in every case”. Also, the “palmitate-induced UPR-associated and pro-Th2 cytokine gene expression” value in assay [3] is listed as “suppressed”.
Regarding `CCCCCCCCCCCCCCCC(=O)[O-].[Na+]` [sodium palmitate], the “induction of expression of the pro-Th2 cytokines” value in the assay on CACO-2 cells [1] (24 hours, stimulant alone, real time PCR, FIG. 1) is listed as “induced increased expression”. The “pro-Th2 cytokine protein expression (IL-25, IL-33, TSLP)” value in the assay on CACO-2 cells [5] is reported as “increase”. Also, the “UPR-dependent induction of pro-Th2 cytokine genes” value in assay [3] is reported as “stimulated”.
